We go through one molecule from patent publication US5369120A, “Pharmaceutical composition of 7-((substituted)amino-8-((substituted)carbonyl)-(methylamino)-1-oxasp iro(4,5)decanes and L-dopa” (Warner-Lambert Company, priority 1993, dated 1994).

In this experiment the test system is rats rendered Parkinsonian by injection of reserpine. Description: locomotor activity and rigidity in reserpine-treated Parkinsonian rats. Particulars: reserpine (4 mg/kg) rats; L-DOPA 80 mg/kg intraperitoneal, subthreshold dose. The class given is in vivo, rat.

Regarding `N[C@@H](Cc1ccc(O)c(O)c1)C(=O)O` [L-DOPA, 3-(3,4-dihydroxyphenyl)L-alanine], the Locomotor scores result is given as “very low locomotor scores”.
